Values after ≈ are worked out from the molar mass of the structure shown.
How the values were obtained:
Assay type in all cases: functional
Candida albicans = assay: Antifungal activity against Candida albicans ATCC 10231 by broth dilution susceptibility test
Nakaseomyces glabratus = assay: Antifungal activity against Candida glabrata ATCC 90030 by broth dilution susceptibility test
Clavispora lusitaniae = assay: Antifungal activity against Candida lusitaniae ATCC 200953 by broth dilution susceptibility test
Candida tropicalis = assay: Antifungal activity against Candida tropicalis ATCC 200955 by broth dilution susceptibility test
Saccharomyces cerevisiae = assay: Antifungal activity against Saccharomyces cerevisiae ATCC 9763 by broth dilution susceptibility test
Aspergillus fumigatus = assay: Antifungal activity against Aspergillus fumigatus ATCC 204305 by broth dilution susceptibility test
Aspergillus flavus = assay: Antifungal activity against Aspergillus flavus ATCC 204304 by broth dilution susceptibility test
Pichia kudriavzevii = assay: Antifungal activity against Candida krusei LSPQ 0309 by broth dilution susceptibility test
Cryptococcus neoformans = assay: Antifungal activity against Cryptococcus neoformans ATCC 32045 by broth dilution susceptibility test

| SMILES | MIC (Candida albicans) [µg/mL] | MIC (Nakaseomyces glabratus) [µg/mL] | MIC (Clavispora lusitaniae) [µg/mL] | MIC (Candida tropicalis) [µg/mL] | MIC (Saccharomyces cerevisiae) [µg/mL] | MIC (Aspergillus fumigatus) [µg/mL] | MIC (Aspergillus flavus) [µg/mL] | MIC (Pichia kudriavzevii) [µg/mL] | MIC (Cryptococcus neoformans) [µg/mL] |
| --- | --- | --- | --- | --- | --- | --- | --- | --- | --- |
| C[C@@H]1[C@H](O)[C@@H](C)/C=C/C=C/C=C/C=C/C=C/C=C/C=C/[C@H](O[C@@H]2O[C@H](C)[C@@H](O)[C@H](N)[C@@H]2O)C[C@@H]2O[C@](O)(C[C@@H](O)C[C@@H](O)[C@H](O)CC[C@@H](O)C[C@@H](O)CC(=O)O[C@H]1C)C[C@H](O)[C@H]2C(=O)O [AMPHOTERICIN B] | 1 (≈ 1.08 µM) | 1 (≈ 1.08 µM) | 1 (≈ 1.08 µM) | 2 (≈ 2.16 µM) | 1 (≈ 1.08 µM) | 2 (≈ 2.16 µM) | 4 (≈ 4.33 µM) |  |  |
| CC(/C=C/CC/C=C/C=C/C=C/C=C/C(=O)NC1=C(O)CCC1=O)C(O)C(C)C(O)/C=C/C=C/C=C/C=C/C=C/CC(O[C@@H]1O[C@@H](C)[C@H](O)[C@@H](O)[C@H]1O)C(C)C(=O)CC(O)CC(O)CC(O)/C=C/CC(O)CC(O)CC(O)CC(O)/C=C/CC(O)CC(O)CCCN (stereo in doubt) | 4 (≈ 3.08 µM) | 4 (≈ 3.08 µM) | 4 (≈ 3.08 µM) | 4 (≈ 3.08 µM) | 4 (≈ 3.08 µM) | 16 (≈ 12.3 µM) | ≥ 8 | 4 (≈ 3.08 µM) | 4 (≈ 3.08 µM) |
